Assay results reported in publication PMC3242598, “Phase I study of BIBF 1120 with docetaxel and prednisone in metastatic chemo-naive hormone-refractory prostate cancer patients” (British Journal of Cancer, 2011).

Tested on: patients with metastatic, chemo-naive, hormone-refractory prostate cancer (HRPC)
Test: Phase I safety analysis: adverse events graded by CTCAE version 3.0
Format: in vivo, human
Conditions: all courses
Procedure: On days 2–21 (21-day cycle), patients took an oral dose of BIBF 1120 twice daily. Patients were instructed to swallow BIBF 1120 with water at the same time every day to ensure a dose interval of ∼12 h. On day 2 of treatment cycles (TCs) 1 and 2, patients only took the morning dose of BIBF 1120, omitting the evening dose to allow PK evaluation. All patients were premedicated with oral corticosteroids (dexamethasone 8 mg per os or methylprednisolone 32 mg per os, at 12 h and 1 h before docetaxel infusion) and subsequently took 5 mg prednisone oral BID throughout the trial. On day 1 of each TC, patients received an IV infusion of 75 mg m^−2 docetaxel administered over 1 h.
All patients who received at least one dose of BIBF 1120 or docetaxel were assessed during the safety analysis. Intensity of AEs was graded according to Common Terminology Criteria for Adverse Events (CTCAE) version 3.0. Objective response was defined as a PSA decline ⩾50% from the baseline value over two consecutive courses and/or tumour response according to RECIST criteria ([Therasse et al, 2000]).

[1] = 100 mg BID (n=3) + docetaxel/prednisone, Gr 3/4
[2] = 100 mg BID (n=3) + docetaxel/prednisone, all grades
[3] = 150 mg BID (n=3) + docetaxel/prednisone, Gr 3/4
[4] = 150 mg BID (n=3) + docetaxel/prednisone, all grades
[5] = 200 mg BID (n=3) + docetaxel/prednisone, Gr 3/4
[6] = 200 mg BID (n=3) + docetaxel/prednisone, all grades

COC(=O)c1ccc2c(c1)NC(=O)/C2=C(\Nc1ccc(N(C)C(=O)CN2CCN(C)CC2)cc1)c1ccccc1 [BIBF 1120]
Ageusia: patients with drug-related AE [1]: 0
Alopecia: patients with drug-related AE [1]: 0
Anorexia: patients with drug-related AE [1]: 0
Asthenia: patients with drug-related AE [1]: 0
Constipation: patients with drug-related AE [1]: 0
Diarrhoea: patients with drug-related AE [1]: 0
Dysgeusia: patients with drug-related AE [1]: 0
Dyspepsia: patients with drug-related AE [1]: 0
Dysphonia: patients with drug-related AE [1]: 0
Elevated ALT: patients with drug-related AE [1]: 0
Elevated AST: patients with drug-related AE [1]: 0
Elevated GGT: patients with drug-related AE [1]: 0
Elevated alkaline phosphatase: patients with drug-related AE [1]: 0
Epistasis: patients with drug-related AE [1]: 0
Headache: patients with drug-related AE [1]: 0
Hot flush: patients with drug-related AE [1]: 0
Mucosal inflammation: patients with drug-related AE [1]: 0
Muscle spasm: patients with drug-related AE [1]: 0
Nausea: patients with drug-related AE [1]: 0
Neuropathy: patients with drug-related AE [1]: 0
Pyrexia: patients with drug-related AE [1]: 0
Rash: patients with drug-related AE [1]: 0
Upper abdominal pain: patients with drug-related AE [1]: 0
Vomiting: patients with drug-related AE [1]: 0
Weight decrease: patients with drug-related AE [1]: 0
Ageusia: patients with drug-related AE [2]: 0
Alopecia: patients with drug-related AE [2]: 0
Anorexia: patients with drug-related AE [2]: 0
Asthenia: patients with drug-related AE [2]: 0
Constipation: patients with drug-related AE [2]: 0
Diarrhoea: patients with drug-related AE [2]: 0
Dysgeusia: patients with drug-related AE [2]: 0
Dyspepsia: patients with drug-related AE [2]: 0
Dysphonia: patients with drug-related AE [2]: 0
Elevated ALT: patients with drug-related AE [2]: 0
Elevated AST: patients with drug-related AE [2]: 0
Elevated GGT: patients with drug-related AE [2]: 0
Elevated alkaline phosphatase: patients with drug-related AE [2]: 0
Epistasis: patients with drug-related AE [2]: 0
Headache: patients with drug-related AE [2]: 0
Hot flush: patients with drug-related AE [2]: 0
Mucosal inflammation: patients with drug-related AE [2]: 0
Muscle spasm: patients with drug-related AE [2]: 0
Nausea: patients with drug-related AE [2]: 0
Neuropathy: patients with drug-related AE [2]: 0
Pyrexia: patients with drug-related AE [2]: 0
Rash: patients with drug-related AE [2]: 0
Upper abdominal pain: patients with drug-related AE [2]: 0
Vomiting: patients with drug-related AE [2]: 0
Weight decrease: patients with drug-related AE [2]: 0
Ageusia: patients with drug-related AE [3]: 0
Alopecia: patients with drug-related AE [3]: 0
Anorexia: patients with drug-related AE [3]: 0
Asthenia: patients with drug-related AE [3]: 0
Constipation: patients with drug-related AE [3]: 0
Diarrhoea: patients with drug-related AE [3]: 0
Dysgeusia: patients with drug-related AE [3]: 0
Dyspepsia: patients with drug-related AE [3]: 0
Dysphonia: patients with drug-related AE [3]: 0
Elevated ALT: patients with drug-related AE [3]: 0
Elevated AST: patients with drug-related AE [3]: 0
Elevated GGT: patients with drug-related AE [3]: 0
Elevated alkaline phosphatase: patients with drug-related AE [3]: 0
Epistasis: patients with drug-related AE [3]: 0
Headache: patients with drug-related AE [3]: 0
Hot flush: patients with drug-related AE [3]: 0
Mucosal inflammation: patients with drug-related AE [3]: 0
Muscle spasm: patients with drug-related AE [3]: 0
Nausea: patients with drug-related AE [3]: 0
Neuropathy: patients with drug-related AE [3]: 0
Pyrexia: patients with drug-related AE [3]: 0
Rash: patients with drug-related AE [3]: 0
Upper abdominal pain: patients with drug-related AE [3]: 0
Vomiting: patients with drug-related AE [3]: 0
Weight decrease: patients with drug-related AE [3]: 0
Ageusia: patients with drug-related AE [4]: 1
Alopecia: patients with drug-related AE [4]: 0
Anorexia: patients with drug-related AE [4]: 3
Asthenia: patients with drug-related AE [4]: 3
Constipation: patients with drug-related AE [4]: 1
Diarrhoea: patients with drug-related AE [4]: 3
Dysgeusia: patients with drug-related AE [4]: 1
Dyspepsia: patients with drug-related AE [4]: 1
Dysphonia: patients with drug-related AE [4]: 1
Elevated ALT: patients with drug-related AE [4]: 0
Elevated AST: patients with drug-related AE [4]: 0
Elevated GGT: patients with drug-related AE [4]: 0
Elevated alkaline phosphatase: patients with drug-related AE [4]: 0
Epistasis: patients with drug-related AE [4]: 1
Headache: patients with drug-related AE [4]: 2
Hot flush: patients with drug-related AE [4]: 0
Mucosal inflammation: patients with drug-related AE [4]: 0
Muscle spasm: patients with drug-related AE [4]: 0
Nausea: patients with drug-related AE [4]: 2
Neuropathy: patients with drug-related AE [4]: 1
Pyrexia: patients with drug-related AE [4]: 1
Rash: patients with drug-related AE [4]: 0
Upper abdominal pain: patients with drug-related AE [4]: 1
Vomiting: patients with drug-related AE [4]: 0
Weight decrease: patients with drug-related AE [4]: 1
Ageusia: patients with drug-related AE [5]: 0
Alopecia: patients with drug-related AE [5]: 0
Anorexia: patients with drug-related AE [5]: 0
Asthenia: patients with drug-related AE [5]: 0
Constipation: patients with drug-related AE [5]: 0
Diarrhoea: patients with drug-related AE [5]: 2
Dysgeusia: patients with drug-related AE [5]: 0
Dyspepsia: patients with drug-related AE [5]: 0
Dysphonia: patients with drug-related AE [5]: 0
Elevated ALT: patients with drug-related AE [5]: 0
Elevated AST: patients with drug-related AE [5]: 0
Elevated GGT: patients with drug-related AE [5]: 0
Elevated alkaline phosphatase: patients with drug-related AE [5]: 0
Epistasis: patients with drug-related AE [5]: 0
Headache: patients with drug-related AE [5]: 0
Hot flush: patients with drug-related AE [5]: 0
Mucosal inflammation: patients with drug-related AE [5]: 0
Muscle spasm: patients with drug-related AE [5]: 0
Nausea: patients with drug-related AE [5]: 0
Neuropathy: patients with drug-related AE [5]: 0
Pyrexia: patients with drug-related AE [5]: 0
Rash: patients with drug-related AE [5]: 0
Upper abdominal pain: patients with drug-related AE [5]: 0
Vomiting: patients with drug-related AE [5]: 0
Weight decrease: patients with drug-related AE [5]: 0
Ageusia: patients with drug-related AE [6]: 0
Alopecia: patients with drug-related AE [6]: 0
Anorexia: patients with drug-related AE [6]: 0
Asthenia: patients with drug-related AE [6]: 1
Constipation: patients with drug-related AE [6]: 0
Diarrhoea: patients with drug-related AE [6]: 2
Dysgeusia: patients with drug-related AE [6]: 0
